What was measured:
human AT1 receptor = molecular target: T1, human AT1 receptor (Homo sapiens, UniProt P30556); assay: AT1 radioligand binding assay (displacement of [Eu]AngII); conditions: membranes of CHO-K1 cells expressing cloned human AT1 receptor; values given as lower bounds; read-out: AT1 pKi (converted)
T1 construct: expressed in transfected cells; host or cells: CHO-K1
T1 sequence (P30556 1-359): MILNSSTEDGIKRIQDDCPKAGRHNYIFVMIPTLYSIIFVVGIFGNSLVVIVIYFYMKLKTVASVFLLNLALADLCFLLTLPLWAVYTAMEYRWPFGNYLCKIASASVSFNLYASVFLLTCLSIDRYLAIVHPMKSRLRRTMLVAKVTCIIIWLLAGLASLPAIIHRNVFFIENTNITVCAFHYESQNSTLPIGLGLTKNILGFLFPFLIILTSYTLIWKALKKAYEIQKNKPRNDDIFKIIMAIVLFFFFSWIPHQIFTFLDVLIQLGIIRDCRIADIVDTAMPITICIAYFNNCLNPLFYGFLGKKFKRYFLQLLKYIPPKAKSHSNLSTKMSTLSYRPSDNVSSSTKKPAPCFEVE
Experimental: A. AT1 and AT2 Radioligand Binding Assays
These in vitro assays were used to assess the ability of test compounds to bind to the AT1 and the AT2 receptors.
Membrane Preparation from Cells Expressing Human AT1 or AT2 Receptors
Chinese hamster ovary (CHO-K1) derived cell lines stably expressing the cloned human AT1 or AT2 receptors, respectively, were grown in HAM's-F12 medium supplemented with 10% fetal bovine serum, 10 μg/ml penicillin/streptomycin, and 500 μg/ml geneticin in a 5% CO2 humidified incubator at 37° C. AT2 receptor expressing cells were grown in the additional presence of 100 nM PD123,319 (AT2 antagonist). When cultures reached 80-95% confluence, the cells were washed thoroughly in PBS and lifted with 5 mM EDTA. Cells were pelleted by centrifugation and snap frozen in MeOH-dry ice and stored at −80° C. until further use.
For membrane preparation, cell pellets were resuspended in lysis buffer (25 mM Tris/HCl pH 7.5 at 4° C., 1 mM EDTA, and one tablet of Complete Protease Inhibitor Cocktail Tablets with 2 mM EDTA per 50 mL buffer (Roche cat.#1697498, Roche Molecular Biochemicals, Indianapolis, Ind.)) and homogenized using a tight-fitting Dounce glass homogenizer (10 strokes) on ice. The homogenate was centrifuged at 1000×g, the supernatant was collected and centrifuged at 20,000×g. The final pellet was resuspended in membrane buffer (75 mM Tris/HCl pH 7.5, 12.5 mM MgCl2, 0.3 mM EDTA, 1 mM EGTA, 250 mM sucrose at 4° C.) and homogenized by extrusion through a 20G gauge needle. Protein concentration of the membrane suspension was determined by the method described in Bradford (1976) Anal Biochem. 72:248-54. Membranes were snap frozen in MeOH-dry ice and stored at −80° C. until further use.
Ligand Binding Assay to Determine Compound Affinities for the Human AT1 and AT2 Angiotensin Receptors
Binding assays were performed in 96-well Acrowell filter plates (Pall Inc., cat.#5020) in a total assay volume of 100 μL with 0.2 μg membrane protein for membranes containing the human AT1 receptor, or 2 μg membrane protein for membranes containing the human AT2 receptor in assay buffer (50 mM Tris/HCl pH 7.5 at 20° C., 5 mM MgCl2, 25 μM EDTA, 0.025% BSA). Saturation binding studies for determination of Kd values of the ligand were done using N-terminally Europium-labeled angiotensin-II ([Eu]AngII, H-(Eu-N^1)-Ahx-Asp-Arg-Val-Tyr-Ile-His-Pro-Phe-OH; PerkinElmer, Boston, Mass.) at 8 different concentrations ranging from 0.1 nM to 30 nM. […] Drugs were dissolved to a concentration of 1 mM in DMSO and from there serially diluted into assay buffer. Non-specific binding was determined in the presence of 10 μM unlabeled angiotensin-II. Assays were incubated for 120 minutes in the dark, at room temperature or 37° C., and binding reactions were terminated by rapid filtration through the Acrowell filter plates followed by three washes with 200 μL ice cold wash buffer (50 mM Tris/HCl pH 7.5 at 4° C., 5 mM MgCl2) using a Waters filtration manifold. Plates were tapped dry and incubated with 50 μl DELFIA Enhancement Solution (PerkinElmer cat.#4001-0010) at room temperature for 5 minutes on a shaker. Filter-bound [Eu]AngII was quantitated immediately on a Fusion plate reader (PerkinElmer) using Time Resolved Fluorescence (TRF). Binding data were analyzed by nonlinear regression analysis with the GraphPad Prism Software package (GraphPad Software, Inc., San Diego, Calif.) using the 3-parameter model for one-site competition. The BOTTOM (curve minimum) was fixed to the value for nonspecific binding, as determined in the presence of 10 μM angiotensin II. Ki values for drugs were calculated from observed IC50 values and the Kd value of [Eu]AngII according to the Cheng-Prusoff equation described in Cheng et al. (1973) Biochem Pharmacol. 22 (23):3099-108. Selectivities of test compounds for the AT1 receptor over the AT2 receptor were calculated as the ratio of AT2Ki/AT1Ki. […]

NEP enzyme = molecular target: T2, NEP enzyme (Homo sapiens, UniProt P08473); assay: NEP enzyme inhibition assay (fluorogenic peptide substrate); assay type: biochemical; conditions: values given as lower bounds; * = prodrugs, may not exhibit NEP activity in an in vitro assay; read-out: NEP pIC50 (converted)
T2 construct: purchased R&D Systems, Minneapolis, Minn; 1182-ZN
T2 sequence (P08473 52-750 limits assumed): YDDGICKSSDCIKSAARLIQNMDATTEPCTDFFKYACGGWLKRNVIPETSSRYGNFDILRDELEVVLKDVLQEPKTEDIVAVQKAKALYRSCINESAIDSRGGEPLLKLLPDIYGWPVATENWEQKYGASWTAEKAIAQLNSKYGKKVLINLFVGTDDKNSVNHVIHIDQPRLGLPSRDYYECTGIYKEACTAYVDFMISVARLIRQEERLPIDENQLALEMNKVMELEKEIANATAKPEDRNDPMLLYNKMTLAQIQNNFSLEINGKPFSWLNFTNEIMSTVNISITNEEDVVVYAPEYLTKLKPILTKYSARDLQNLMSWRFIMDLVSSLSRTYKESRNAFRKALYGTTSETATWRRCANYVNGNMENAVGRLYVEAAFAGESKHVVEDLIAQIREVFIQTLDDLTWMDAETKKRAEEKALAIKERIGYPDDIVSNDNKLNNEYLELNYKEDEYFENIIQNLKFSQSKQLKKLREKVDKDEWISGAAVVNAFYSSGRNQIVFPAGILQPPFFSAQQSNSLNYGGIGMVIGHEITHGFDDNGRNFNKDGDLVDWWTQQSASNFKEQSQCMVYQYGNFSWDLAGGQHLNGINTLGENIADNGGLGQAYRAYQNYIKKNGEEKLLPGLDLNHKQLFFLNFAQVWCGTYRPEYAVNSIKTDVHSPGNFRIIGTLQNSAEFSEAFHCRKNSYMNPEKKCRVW
Experimental: B. In Vitro Assays for the Quantitation of Inhibitor Potencies (IC50) at Human and Rat NEP, and Human ACE
The inhibitory activities of compounds at human and rat NEP and human ACE were determined using in vitro assays as described below.
Recombinant human NEP and recombinant human ACE were obtained commercially (R&D Systems, Minneapolis, Minn., catalog numbers 1182-ZN and 929-ZN, respectively). The fluorogenic peptide substrate Mca-BK2 (Mca-Arg-Pro-Pro-Gly-Phe-Ser-Ala-Phe-Lys(Dnp)-OH; Johnson et al. (2000) Anal. Biochem. 286: 112-118) was used for the human NEP and ACE assays, and Mca-RRL (Mca-DArg-Arg-Leu-(Dnp)-OH; Medeiros et al. (1997) Braz. J. Med. Biol. Res. 30:1157-1162) was used for the rat NEP assay (both from Anaspec, San Jose, Calif.).
The assays were performed in 384-well white opaque plates at room temperature using the respective fluorogenic peptides at a concentration of 10 μM in assay buffer (50 mM Tris/HCl at 25° C., 100 mM NaCl, 0.01% Tween-20, 1 μM Zn, 0.025% BSA). […] The rat NEP enzyme preparation was used at a concentration that yielded quantitative proteolysis of 3 μM of Mca-RRL within 20 minutes at room temperature.
Test compounds were diluted to 12 concentrations from 10 μM to 20 pM in Assay Buffer. Assays were started by adding 25 μL of enzyme to 12.5 μL of test compound at each of the 12 concentrations. Test compounds were allowed to equilibrate with the enzyme for 10 minutes before 12.5 μL of the fluorogenic substrates were added to initiate the reaction. Reactions were terminated by the addition of 10 μL of 3.6% glacial acetic acid after 20 minutes of incubation.
For sulfhydryl-containing test compounds, the test compounds may be diluted in Assay Buffer containing a 400 μM concentration of tris(2-carboxyethyl)phosphine hydrochloride (Thermo Scientific, Rockford, Ill.) (TCEP). The test compounds are then incubated for 40 minutes at room temperature (to allow for dimer cleavage) before adding the enzyme. Test compounds are then allowed to equilibrate with the enzyme for 20 minutes before adding the fluorogenic substrates. Reactions are terminated as above.
Plates were read on a fluorometer with excitation and emission wavelengths set to 320 nm and 405 nm, respectively. Raw data (relative fluorescence units) were normalized to % activity from the average high readings (no inhibition, 100% enzyme activity) and average low readings (full inhibition, highest inhibitor concentration, 0% enzyme activity) using three standard NEP and ACE inhibitors, respectively. Nonlinear regression of the normalized data was performed using a one site competition model (GraphPad Software, Inc., San Diego, Calif.). Data were reported as pIC50 values.

SMILES | Ki (human AT1 receptor) | IC50 (NEP enzyme)
CCCc1cc(C(=O)N[C@H](Cc2ccccc2)[C@@H](O)C(=O)OC)nn1Cc1ccc(-c2ccccc2-c2nnn[nH]2)cc1 [Example 3-12, (2R,3R)-2-Hydroxy-4-phenyl-3-({5-propyl-1-[2′-(1H-tetrazol-5-yl)-biphenyl-4-ylmethyl]-1H-pyrazole-3-carbonyl}amino)butyric acid methyl ester] | ≤ 10 nM | ≤ 10000 nM
CCCc1cc(C(=O)N[C@@H](CC(=O)O)Cc2ccccc2Br)nn1Cc1ccc(-c2ccccc2-c2nnn[nH]2)cc1 [Example 3-13, (R)-4-(2-Bromophenyl)-3-({5-propyl-1-[2′-(1H-tetrazol-5-yl)-biphenyl-4-ylmethyl]-1H-pyrazole-3-carbonyl}amino)butyric acid] | ≤ 10 nM | ≤ 1000 nM
CCCc1cc(C(=O)N[C@H](Cc2ccccc2)CN(O)C=O)nn1Cc1ccc(-c2ccccc2-c2nnn[nH]2)cc1 [Example 3-14, 5-Propyl-1-[2′-(1H-tetrazol-5-yl)-biphenyl-4-ylmethyl]-1H-pyrazole-3-carboxylic acid [(R)-1-benzyl-2-(formylhydroxyamino)ethyl]amide] | ≤ 10 nM | ≤ 100 nM
CCCc1cc(C(=O)N[C@@H](CC(=O)NO)Cc2ccccc2Cl)nn1Cc1ccc(-c2ccccc2-c2nnn[nH]2)cc1 [Example 3-15, 5-Propyl-1-[2′-(1H-tetrazol-5-yl)-biphenyl-4-ylmethyl]-1H-pyrazole-3-carboxylic acid [(R)-2-(2-chlorophenyl)-1-hydroxycarbamoylmethylethyl]amide] | ≤ 10 nM | ≤ 100 nM
CCCc1cc(C(=O)N[C@@H](CC(=O)NO)Cc2ccccc2)nn1Cc1ccc(-c2ccccc2-c2nnn[nH]2)cc1 [Example 3-16, 5-Propyl-1-[2′-(1H-tetrazol-5-yl)-biphenyl-4-ylmethyl]-1H-pyrazole-3-carboxylic acid ((R)-1-hydroxycarbamoylmethyl-2-phenylethyl)amide] | ≤ 10 nM | ≤ 100 nM
CCCc1cc(C(=O)N[C@H](Cc2ccccc2)[C@@H](O)C(=O)NO)nn1Cc1ccc(-c2ccccc2-c2nnn[nH]2)cc1 [Example 3-17, 1-((2′-(1H-tetrazol-5-yl)biphenyl-4-yl)methyl)-N-((2R,3R)-3-hydroxy-4-(hydroxyamino)-4-oxo-1-phenylbutan-2-yl)-5-propyl-1H-pyrazole-3-carboxamide] | ≤ 10 nM | ≤ 100 nM
CCCc1cc(C(=O)N[C@@H](CC(=O)O)Cc2ccccc2Cl)nn1Cc1ccc(-c2ccccc2-c2nnn[nH]2)c(F)c1 [Example 3-18, (R)-4-(2-Chlorophenyl)-3-({1-[2-fluoro-2′-(1H-tetrazol-5-yl)biphenyl-4-ylmethyl]-5-propyl-1H-pyrazole-3-carbonyl}amino)butyric acid] | ≤ 10 nM | ≤ 1000 nM
CCCc1cc(C(=O)N[C@@H](CC(=O)O)Cc2ccccc2C(F)(F)F)nn1Cc1ccc(-c2ccccc2-c2nnn[nH]2)c(F)c1 [Example 3-19, (R)-3-({1-[2-Fluoro-2′-(1H-tetrazol-5-yl)-biphenyl-4-ylmethyl]-5-propyl-1H-pyrazole-3-carbonyl}amino)-4-(2-trifluoromethylphenyl)butyric acid] | ≤ 100 nM | ≤ 1000 nM
CCCc1cc(C(=O)N[C@@H](CC(=O)O)Cc2ccccc2Cl)nn1Cc1ccc(-c2ccccc2-c2nnn[nH]2)cc1F [Example 3-20, (R)-4-(2-chlorophenyl)-3-(1-((3-fluoro-2′-(1H-tetrazol-5-yl)biphenyl-4-yl)methyl)-5-propyl-1H-pyrazole-3-carboxamido)butanoic acid] | ≤ 100 nM | ≤ 1000 nM
CCCc1cc(C(=O)N[C@@H](CC(=O)O)Cc2ccccc2C(F)(F)F)nn1Cc1ccc(-c2ccccc2-c2nnn[nH]2)cc1F [Example 3-21, (R)-3-(1-((3-fluoro-2′-(1H-tetrazol-5-yl)biphenyl-4-yl)methyl)-5-propyl-1H-pyrazole-3-carboxamido)-4-(2-(trifluoromethyl)phenyl)butanoic acid] | ≤ 100 nM | ≤ 1000 nM
CCCc1cc(C(=O)N[C@H](Cc2ccccc2Cl)[C@@H](O)C(=O)O)nn1Cc1ccc(-c2ccccc2-c2nnn[nH]2)cc1 [Example 3-22, (2R,3R)-3-(1-((2′-(1H-tetrazol-5-yl)biphenyl-4-yl)methyl)-5-propyl-1H-pyrazole-3-carboxamido)-4-(2-chlorophenyl)-2-hydroxybutanoic acid] | ≤ 100 nM | ≤ 100 nM
CCCc1cc(C(=O)N[C@H](Cc2ccccc2)[C@@H](O)C(=O)O)nn1Cc1ccc(-c2ccccc2-c2nnn[nH]2)cc1F [Example 3-23, (2R,3R)-3-(1-((3-fluoro-2′-(1H-tetrazol-5-yl)biphenyl-4-yl)methyl)-5-propyl-1H-pyrazole-3-carboxamido)-2-hydroxy-4-phenylbutanoic acid] | ≤ 10 nM | ≤ 100 nM

Reference: US8350027B2, “Dual-acting pyrazole antihypertensive agents” (Theravance, Inc., priority 2009, dated 2013)
